# Laboratory results reported in patent US8404670B2 (Sunovion Pharmaceuticals Inc., priority 2009, dated 2013).
# pIC50: −log10 of the molar value.
# Molecular target: T1, human histamine H3 receptor (Homo sapiens, UniProt Q9Y5N1)
# T1 construct: host or cells: cells expressing the human H3 receptor
# Assay: H3 GTPγS assay (SPA method), histamine H3 in vitro assay
# Type: biochemical
# Details: GTPγ[35S] binding to membranes of cells expressing human H3; antagonist mode with R-γ-Me-Histamine at EC80 (30 nM); in one embodiment HCl salts tested; read-out: Potency (functional potency as indicated by IC50)
# T1 sequence (Q9Y5N1 whole entry): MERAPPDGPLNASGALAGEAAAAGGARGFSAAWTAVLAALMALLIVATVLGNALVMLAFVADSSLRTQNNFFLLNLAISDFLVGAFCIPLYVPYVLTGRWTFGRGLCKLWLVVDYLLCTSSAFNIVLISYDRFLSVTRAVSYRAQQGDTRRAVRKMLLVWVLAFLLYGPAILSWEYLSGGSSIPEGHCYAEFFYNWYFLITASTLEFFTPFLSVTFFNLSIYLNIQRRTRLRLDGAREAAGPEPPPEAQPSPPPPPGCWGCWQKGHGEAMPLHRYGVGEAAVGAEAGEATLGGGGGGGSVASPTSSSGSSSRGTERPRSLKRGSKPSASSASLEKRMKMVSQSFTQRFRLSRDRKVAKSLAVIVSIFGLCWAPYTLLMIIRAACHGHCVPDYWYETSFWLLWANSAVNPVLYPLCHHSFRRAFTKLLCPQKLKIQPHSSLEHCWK
row,Compound,pIC50
1,"c1cc(-c2ccc3c(c2)nc2n3CCN(C3CCC3)CC2)nc(N2CCCC2)n1 [Compound 131, 3-cyclobutyl-8-(2-(pyrrolidin-1-yl)pyrimidin-4-yl)-2,3,4,5-tetrahydro-1H-benzo[4,5]imidazo[1,2-d][1,4]diazepine]",≥ 8.00
2,"c1ccc(CN2CCN(c3ccc4c(c3)nc3n4CCN(C4CCC4)CC3)CC2)cc1 [Compound 224, 8-(4-benzylpiperazin-1-yl)-3-cyclobutyl-2,3,4,5-tetrahydro-1H-benzo[4,5]imidazo[1,2-d][1,4]diazepine]",≥ 8.00
3,"CN(C)CCc1ccc2c(c1)nc1n2CCN(C2CCC2)CC1 [Compound 139, 2-(3-cyclobutyl-2,3,4,5-tetrahydro-1H-benzo[4,5]imidazo[1,2-d][1,4]diazepin-8-yl)-N,N-dimethylethanamine]",≥ 7.00
4,c1ccc2c(c1)cnn2-c1ccc2c(c1)nc1n2CCN(C2CCC2)CC1 [Compound 69],≥ 7.00
5,"N#Cc1ccc(NC(=O)c2ccc3c(c2)nc2n3CCN(C3CCC3)CC2)cc1 [Compound 61, 3-cyclobutyl-N-(4-cyanophenyl)-2,3,4,5-tetrahydro-1H-[1,4]diazepino[1,7-a]benzimidazole-9-carboxamide]",≥ 7.00
6,"c1nc2cc(-c3ccc4c(c3)nc3n4CCN(C4CCC4)CC3)ccc2[nH]1 [Compound 217, 8-(1H-benzo[d]imidazol-5-yl)-3-cyclobutyl-2,3,4,5-tetrahydro-1H-benzo[4,5]imidazo[1,2-d][1,4]diazepine]",≥ 7.00
7,"Cn1ncc2ccc(-c3ccc4c(c3)nc3n4CCN(C4CCC4)CC3)cc21 [Compound 205, 3-cyclobutyl-8-(1-methyl-1H-indazol-6-yl)-2,3,4,5-tetrahydro-1H-benzo[4,5]imidazo[1,2-d][1,4]diazepine]",≥ 7.00
8,"CN1Cc2cc3nc4n(c3cc2C1)CCN(C1CCC1)CC4 [Compound 146, 8-cyclobutyl-2-methyl-1,2,3,6,7,8,9,10-octahydro-[1,4]diazepino[1′,7′:1,2]imidazo[4,5-f]isoindole]",≥ 8.00
9,"Cc1nncn1-c1ccc2c(c1)nc1n2CCN(C2CCC2)CC1 [Compound 157, 3-cyclobutyl-8-(3-methyl-4H-1,2,4-triazol-4-yl)-2,3,4,5-tetrahydro-1H-benzo[4,5]imidazo[1,2-d][1,4]diazepine]",≥ 7.00
10,CC(C1CCC1)N1CCc2nc3cc(Cl)ccc3n2CC1 (centres unmarked) [Compound 11],≤ 6.00
11,"c1cnc2c(c1)ccn2-c1ccc2c(c1)nc1n2CCN(C2CCC2)CC1 [Compound 70, 3-cyclobutyl-9-(1H-pyrrolo[2,3-b]pyridin-1-yl)-2,3,4,5-tetrahydro-1H-[1,4]diazepino[1,7-a]benzimidazole]",≥ 7.00
12,"c1ccc2c(c1)CCN(c1ccc3c(c1)nc1n3CCN(C3CCC3)CC1)C2 [Compound 176, 3-cyclobutyl-8-(3,4-dihydroisoquinolin-2(1H)-yl)-2,3,4,5-tetrahydro-1H-benzo[4,5]imidazo[1,2-d][1,4]diazepine]",≥ 8.00
13,"Fc1ccc2c(c1)CCN(Cc1ccc3c(c1)nc1n3CCN(C3CCC3)CC1)C2 [Compound 164, 3-cyclobutyl-8-((6-fluoro-3,4-dihydroisoquinolin-2(1H)-yl)methyl)-2,3,4,5-tetrahydro-1H-benzo[4,5]imidazo[1,2-d][1,4]diazepine]",≥ 8.00
14,c1cc2c(cc1-c1cnc(N3CCCC3)cn1)nc1n2CCN(C2CCC2)CC1 [Compound 91],≥ 7.00
15,"COc1ccc(-c2ccc3c(c2)nc2n3CCN(C3CCC3)CC2)nn1 [Compound 134, 3-cyclobutyl-8-(6-methoxypyridazin-3-yl)-2,3,4,5-tetrahydro-1H-benzo[4,5]imidazo[1,2-d][1,4]diazepine]",≥ 7.00
16,c1coc(-c2ccc3nc4n(c3c2)CCN(C2CCC2)CC4)c1 [Compound 90],≥ 6.00
17,"Clc1ccc(-c2ccc3c(c2)nc2n3CCN(C3CCC3)CC2)cc1Cl [Compound 211, 3-cyclobutyl-8-(3,4-dichlorophenyl)-2,3,4,5-tetrahydro-1H-benzo[4,5]imidazo[1,2-d][1,4]diazepine]",≥ 7.00
18,O=C(c1ccc2nc3n(c2c1)CCN(C1CCC1)CC3)N1CCCC1 [Compound 86],≥ 6.00
19,NCc1ccc2c(c1)nc1n2CCN(C2CCC2)CC1 [Compound 140],≥ 7.00
20,c1cc2cc(-c3ccc4nc5n(c4c3)CCN(C3CCC3)CC5)ccc2[nH]1 [Compound 43],≥ 6.00
21,O=C(c1ccc2c(c1)nc1n2CCN(C2CCC2)CC1)N1CCCC1 [Compound 60],≥ 7.00
22,"CN1CCN(c2cccc(-c3ccc4c(c3)nc3n4CCN(C4CCC4)CC3)n2)CC1 [Compound 136, 3-cyclobutyl-8-(6-(4-methylpiperazin-1-yl)pyridin-2-yl)-2,3,4,5-tetrahydro-1H-benzo[4,5]imidazo[1,2-d][1,4]diazepine]",≥ 7.00
23,c1cc2c(cc1CN1CCCC1)nc1n2CCN(C2CCC2)CC1 [Compound 75],≥ 8.00
24,CC(=O)Nc1ccc(-c2ccc3c(c2)nc2n3CCN(C3CCC3)CC2)cc1 [Compound 3],≥ 8.00
25,"O=c1[nH]c2cc(-c3ccc4c(c3)nc3n4CCN(C4CCC4)CC3)ccc2o1 [Compound 215, 5-(3-cyclobutyl-2,3,4,5-tetrahydro-1H-benzo[4,5]imidazo[1,2-d][1,4]diazepin-8-yl)benzo[d]oxazol-2(3H)-one]",≥ 7.00
26,"c1cc(-c2ccc3c(c2)nc2n3CCN(C3CCC3)CC2)cnn1 [Compound 127, 3-cyclobutyl-8-(pyridazin-4-yl)-2,3,4,5-tetrahydro-1H-benzo[4,5]imidazo[1,2-d][1,4]diazepine]",≥ 7.00
